# From article PMC5114558, “Reader domain specificity and lysine demethylase-4 family function” (Nature Communications, 2016)
# Substitutions are numbered along the chain they refer to. Entries after “also recorded” stand apart in the source; their conditions may differ.
# Assays:
# [1] = tested on: KDM4B full-length protein; assay: MS-based demethylation assay, 1:1 substrate competition, full-length KDM4B; assay type: biochemical, human; details: 1:1 (5 μM:5 μM) H3K36me3 and H3K23me3K36me3, 25 °C, P<0.01 (Fig. 6c)
# Experimental: (§1) In a typical demethylase reaction, the assay mixture containing 50 mM Tris pH 7.5, 50 mM NaCl, 50 μM (NH4)2Fe(SO4)2, 0.5 mM ascorbic acid, 1 mM α-ketoglutarate and 0.2 μM full-length KDM4A–C (Active Motif) was mixed with 5–10 μM of trimethylated histone peptides (detailed sequence information in Supplementary Table 1). Each peptide concentration was quantified by measuring Abs280nm for peptides containing either tryptophan or tyrosine residue. After incubation of assay mixture at 25 °C for 10, 30 and 60 min time point, 10 μl of aliquot was transferred to a clean tube containing 5 μl of 5% formic acid to quench the reaction. Each quenched sample was treated with standard StageTip protocol using C18 extraction disk (Model 2215, Empore, 3 M) to remove excess salts and detergents in the reaction mixture. Each eluate from StageTip containing peptides was dried at a reduced pressure (vacuum centrifuge) and was re-suspended with 10 μl of 5% acetonitrile solution (0.1% formic acid). The 1 μl of the sample was injected at 0.7 μl min^−1 flow rate onto a Dionex Ultimate 3000 Nano LC system equipped with Atlantis dC18 NanoEase reverse-phase column (3 μm, 100 μm × 150 mm, Waters) and coupled to a hybrid quadrupole-orbitrap MS (Q-Exactive, Thermo Scientific). The peptide was eluted at 4–15 min retention time with a linear gradient of 2–35% acetonitrile (0.1% formic acid). […]
# KDM4C full-length = assay: MS-based demethylation assay, 1:1 substrate competition, full-length KDM4C; assay type: biochemical, human; details: 1:1 (5 μM:5 μM) H3K36me3 and H3K23me3K36me3, MS; Supplementary Fig. 7d-e
# Experimental: as §1
# [2] = tested on: KDM4B full-length protein; assay: MS-based demethylation assay, full-length KDM4B; assay type: biochemical, human; details: 0.2 μM enzyme, 5–10 μM peptide, pH 7.5, 25 °C, MS read-out, single peptide substrates, Fig. 6a,b
# Experimental: In a typical demethylase reaction, the assay mixture containing 50 mM Tris pH 7.5, 50 mM NaCl, 50 μM (NH4)2Fe(SO4)2, 0.5 mM ascorbic acid, 1 mM α-ketoglutarate and 0.2 μM full-length KDM4A–C (Active Motif) was mixed with 5–10 μM of trimethylated histone peptides (detailed sequence information in Supplementary Table 1). Each peptide concentration was quantified by measuring Abs280nm for peptides containing either tryptophan or tyrosine residue. After incubation of assay mixture at 25 °C for 10, 30 and 60 min time point, 10 μl of aliquot was transferred to a clean tube containing 5 μl of 5% formic acid to quench the reaction. Each quenched sample was treated with standard StageTip protocol using C18 extraction disk (Model 2215, Empore, 3 M) to remove excess salts and detergents in the reaction mixture. Each eluate from StageTip containing peptides was dried at a reduced pressure (vacuum centrifuge) and was re-suspended with 10 μl of 5% acetonitrile solution (0.1% formic acid). The 1 μl of the sample was injected at 0.7 μl min^−1 flow rate onto a Dionex Ultimate 3000 Nano LC system equipped with Atlantis dC18 NanoEase reverse-phase column (3 μm, 100 μm × 150 mm, Waters) and coupled to a hybrid quadrupole-orbitrap MS (Q-Exactive, Thermo Scientific). The peptide was eluted at 4–15 min retention time with a linear gradient of 2–35% acetonitrile (0.1% formic acid). All the solvents used for liquid chromatography MS were HPLC grade (Fisher). For each analysis, MS1 scan range of 300–1,100 m/z was used and data-dependent MS/MS was obtained to identify the site of demethylation. Each peptide peak and its area integration was performed on the XCalibur Qual Browser.
# KDM4A full-length = assay: MS-based demethylation assay, 1:1 substrate competition, full-length KDM4A; assay type: biochemical, human; details: 1:1 (5 μM:5 μM) H3K36me3 and H3K23me3K36me3, MS; Supplementary Fig. 7d-e
# Experimental: as §1
# KDM4B S965D = molecular target: T1, KDM4B S965D (Homo sapiens, UniProt O94953, S965D); assay: FP binding, KDM4B-DTD S965D; details: pH 7.4, Fig. 4i (± s.d., three replicates) and text
# T1 construct: DNA encoding DTDs (KDM4A 895–1011aa, KDM4B 917–1031aa and KDM4C 877–991aa); (His)6-HaloTag (pFN29) or (His)6 (pET28b); made in house; host or cells: Escherichia coli BL21 (DE3)
# T1 sequence (O94953 917-1031 S965D): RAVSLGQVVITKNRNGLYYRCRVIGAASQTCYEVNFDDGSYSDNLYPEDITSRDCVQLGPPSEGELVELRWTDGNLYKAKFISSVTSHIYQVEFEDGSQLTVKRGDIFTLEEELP
# Text: (§2) KDM4 protein sequences used in this study correspond to Uniprot ID: O75164 (human KDM4A, isoform 1), O94953 (human KDM4B, isoform1) and Q9H3R0 (human KDM4C, isoform1). Plasmid encoding KDM4A DTD was kindly provided by R-M Xu (Chinese Academy of Sciences). Complementary DNA encoding human KDM4B-DTD was synthesized (Integrated DNA Technologies). Plasmid containing cDNA of full-length KDM4C (clone ID: HsCD00341594) was obtained from Harvard Plasmid Repository. DNA encoding DTDs (KDM4A 895–1011aa, KDM4B 917–1031aa and KDM4C 877–991aa) were cloned into pFN29 (Promega) with N-terminal (His)6-HaloTag or pET28b with N-terminal (His)6 Tag using In-Fusion HD cloning kit (Clontech). […]
# (§3) Peptide sequences are given in Supplementary Table 1. […] Polarization at each concentration was measured as triplicates in 384-well polystyrene black microplates (Thermo Fisher Scientific 262260) by Biotek Synergy H4 multimode plate reader (light source: xenon flash, offset from top: 7 mm, sensitivity: 60%, excitation: 485/20 nm, emission: 528/20 nm, both parallel and perpendicular, normal read speed). Fraction bound (Fb) at each concentration was calculated based on the corresponding polarization values (P): Fbc=(Pc−Pmin)/(Pmax−Pmin), where Pmin is the polarization value of no-protein control and Pmax is the polarization value of the saturation value for that peptide. […]
# [3] = molecular target: T2, KDM4B DTD (human KDM4B double tudor domain, 917–1031aa) (Homo sapiens, UniProt O94953); assay: fluorescence polarization (FP) binding, KDM4B-DTD wild-type; details: matrix Fig. 1d, values given in mM, pH 7.4, read-out: binding affinity (Kd), KDM4B DTD
# T2 construct: DNA encoding DTDs (KDM4A 895–1011aa, KDM4B 917–1031aa and KDM4C 877–991aa); (His)6-HaloTag (pFN29) or (His)6 (pET28b); made in house; host or cells: Escherichia coli BL21 (DE3)
# T2 sequence (O94953 917-1031): T1 sequence (O94953 917-1031 S965D) with D49S
# Text: (§4) KDM4 protein sequences used in this study correspond to Uniprot ID: O75164 (human KDM4A, isoform 1), O94953 (human KDM4B, isoform1) and Q9H3R0 (human KDM4C, isoform1). Plasmid encoding KDM4A DTD was kindly provided by R-M Xu (Chinese Academy of Sciences). Complementary DNA encoding human KDM4B-DTD was synthesized (Integrated DNA Technologies). Plasmid containing cDNA of full-length KDM4C (clone ID: HsCD00341594) was obtained from Harvard Plasmid Repository. DNA encoding DTDs (KDM4A 895–1011aa, KDM4B 917–1031aa and KDM4C 877–991aa) were cloned into pFN29 (Promega) with N-terminal (His)6-HaloTag or pET28b with N-terminal (His)6 Tag using In-Fusion HD cloning kit (Clontech). Plasmids encoding Xenopus laevis core histones were a generous gift of K. Luger (University of Colorado-Boulder). Site-directed mutagenesis was performed with Q5 Site-Directed Mutagenesis Kit (New England Biolabs).
# (§5) Peptide sequences are given in Supplementary Table 1. […] A no-protein control with only peptide probe was included. Polarization at each concentration was measured as triplicates in 384-well polystyrene black microplates (Thermo Fisher Scientific 262260) by Biotek Synergy H4 multimode plate reader (light source: xenon flash, offset from top: 7 mm, sensitivity: 60%, excitation: 485/20 nm, emission: 528/20 nm, both parallel and perpendicular, normal read speed). Fraction bound (Fb) at each concentration was calculated based on the corresponding polarization values (P): Fbc=(Pc−Pmin)/(Pmax−Pmin), where Pmin is the polarization value of no-protein control and Pmax is the polarization value of the saturation value for that peptide. Dissociation constants (Kd) were derived by KaleidaGraph, Synergy Software (version 4.1.3) using the following equation: Fb=[protein]/([protein]+Kd).
# KDM4B N960A = molecular target: T3, KDM4B N960A (Homo sapiens, UniProt O94953, N960A); assay: FP binding, KDM4B-DTD N960A; details: pH 7.4, Fig. 4g (± s.d., three replicates) and text
# T3 construct: DNA encoding DTDs (KDM4A 895–1011aa, KDM4B 917–1031aa and KDM4C 877–991aa); (His)6-HaloTag (pFN29) or (His)6 (pET28b); made in house; host or cells: Escherichia coli BL21 (DE3)
# T3 sequence (O94953 917-1031 N960A): T1 sequence (O94953 917-1031 S965D) with N44A, D49S
# Text: as §2, §3
# [4] = molecular target: T4, KDM4A DTD (human KDM4A double tudor domain, 895–1011aa) (Homo sapiens, UniProt O75164); assay: fluorescence polarization (FP) binding, KDM4A-DTD wild-type; details: matrix Fig. 1d and Fig. 3c, pH 7.4, read-out: binding affinity (Kd), KDM4A DTD wild-type
# T4 construct: DNA encoding DTDs (KDM4A 895–1011aa, KDM4B 917–1031aa and KDM4C 877–991aa); (His)6-HaloTag (pFN29) or (His)6 (pET28b); made in house; host or cells: Escherichia coli BL21 (DE3)
# T4 sequence (O75164 895-1011): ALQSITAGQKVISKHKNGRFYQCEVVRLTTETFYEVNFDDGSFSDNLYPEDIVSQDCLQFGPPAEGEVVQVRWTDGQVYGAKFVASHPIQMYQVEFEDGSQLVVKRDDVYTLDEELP
# Text: as §4, §5
Kd (KDM4B S965D) [µM],Kd [3] [mM],Kd (KDM4B N960A) [µM],Kd [4] [µM],Molecule,preferential demethylation by KDM4B in 1:1 mixture [1],preferential demethylation by KDM4C in 1:1 mixture (KDM4C full-length),demethylation by full-length KDM4B [2],demethylation by full-length KDM4B ([2]; listed as H3(20–42)K23me3K36me3),preferential demethylation by KDM4A in 1:1 mixture (KDM4A full-length)
–,–,–,–,"H3K23me3K36me3: demethylation assay peptide, Tufts University Core Facility",preferentially demethylates dually modified peptide; also recorded: preferentially demethylate H3K36me3 in the context of dually modified peptide,not KDM4C,faster rates of H3K36me2 and H3K36me1 product formation,increases H3K36me3 conversion to H3K36me1/2,preferentially demethylates dually modified peptide; also recorded: enhanced for KDM4A and KDM4B but not KDM4C
199 ± 16.1,> 3,304 ± 35.8,2.7,C[C@H](N)C(=O)N[C@@H](CCCNC(=N)N)C(=O)N[C@H](C(=O)N[C@@H](CCCC[N+](C)(C)C)C(=O)N[C@@H](CCC(N)=O)C(=O)N[C@H](C(=O)N[C@@H](C)C(=O)N[C@@H](CCCNC(=N)N)C(=O)N[C@@H](CCCCN)C(=O)N[C@@H](CO)C(=O)N[C@H](C(=O)NCC(=O)NCC(=O)N[C@@H](CCCCNC(=O)c1ccc2c(c1)C(=O)OC21c2ccc(O)cc2Oc2cc(O)ccc21)C(=O)O)[C@@H](C)O)[C@@H](C)O)[C@@H](C)O [H3K4me3],–,–,–,–,–
